# Source: PMC11592477, “Bioengineering the Human Intestinal Mucosa and the Importance of Stromal Support for Pharmacological Evaluation In Vitro” (Cells, 2024)
# B1: keratinocyte growth factor (protein, UniProt P21781 32-194, looked up)
# Fibroblast growth factor 7: CNDMTPEQMATNVNCSSPERHTRSYDYMEGGDIRVRRLFCRTQWYLRIDKRGKVKGTQEMKNNYNIMEIRTVAVGIVAIKGVESEFYLAMNKEGKLYAKKECNEDCNFKELILENHYNTYASAKWTHNGGEMFVALNQKGIPVRGKKTKKEQKTAHFLPMAIT
# notes: keratinocyte growth factor, soluble mediator secreted by fibroblasts, added exogenously to EO constructs
# Tests used:
# [1] = system: epithelial-only (EO) Caco-2 monolayer constructs; assay: Ussing chamber drug permeability, epithelial-only (EO) constructs; type: in vitro ADME, human
# [2] = system: full thickness (FT) intestinal constructs (Caco-2 on CCD-18co or HDFn stromal compartment); assay: Ussing chamber drug permeability, full-thickness (FT) intestinal constructs; type: in vitro ADME, human
# Caco-2 monolayers = conditions: hydrophilic drugs; in words; ref [14]; cited from earlier work
# [3] = hydrophilic drugs; in words; ref [14]; cited from earlier work
# [4] = system: epithelial-only (EO) Caco-2 monolayer constructs; assay: Transepithelial electrical resistance (TEER) of KGF-supplemented EO constructs; type: cell-based, human; conditions: with increasing KGF concentration (0.5–25 ng.mL−1)
# [5] = system: epithelial-only (EO) Caco-2 monolayer constructs; assay: qPCR gene expression in KGF-supplemented EO constructs; type: cell-based, human; conditions: with increasing KGF concentration
# Procedure: (§1) For conditioned medium studies, Caco-2 monolayers were established as above, but after 48 h, the medium was replenished with a 1:1 mix of fresh culture medium and conditioned medium obtained from 80% confluent fibroblast cultures (HDFn or CCD-18co). The conditioned medium was centrifuged to remove cellular debris and sterile filtered before addition to EO cultures. Similarly, KGF-supplemented cultures were seeded in standard conditions and supplemented with a range of concentrations (0.5–25 ng·mL^−1) of KGF following the establishment of cultures for 48 h. Both conditioned and KGF-supplemented media were replenished at each media change: every two days.
# EO tissue constructs were lysed in RLT buffer (Qiagen, Manchester, UK) and homogenized through repeated aspiration with a 20-gauge needle. […] The mRNA was suspended in molecular-grade water and stored at −80 °C prior to analysis. mRNA abundance was quantified using a Nanodrop Spectrophotometer […] and 200 ng was reverse-transcribed using the GoScript™ Reverse Transcriptase kit (Promega, Hampshire, UK), as per the manufacturer’s instructions. […] Data were analyzed through normalization to the housekeeping reference genes (GAPDH) using the ΔΔCt method and the fold change was averaged after this normalization.
# villin = assay: Immunofluorescence of villin in KGF-supplemented EO constructs; type: cell-based, human; conditions: with KGF concentration up to 5–25 ng.mL−1
# Procedure: as §1
# Wax sections were prepared for staining by de-paraffinization in Histo-Clear followed by rehydration from 100% ethanol to PBS. Antigen retrieval was performed in citrate buffer (pH 6, Sigma-Aldrich) at 95 °C for 20 min. Alternatively, EO constructs were prepared through fixation in a 1:1 ice-cold solution of methanol (Sigma-Aldrich) and acetone (Sigma-Aldrich) for 10 min at −20 °C. From this point onwards whole EO constructs and mounted tissue sections were stained in the same manner.
# The samples were blocked for 1 h at room temperature in a solution consisting of 10% normal goat serum ([…], Sigma-Aldrich) and 0.1% […] (Sigma-Aldrich) in PBS. […]
# Aminopeptidase = Aminopeptidase activity assay of KGF-supplemented EO constructs; type: cell-based, human; conditions: with increasing KGF concentration (0.5–25 ng.mL−1)
# Procedure: as §1
# Aminopeptidase activity was quantified through the catalyzation of the cleavage of L-slsninr-4-nitroanilide hydrochloride into the breakdown product 4-nitranline. This was achieved through the addition of 0.5 mL of prewarmed 1.5 mM L-analine-4-nitiroanilide hydrochloride solution (Sigma-Aldrich, St. Louis, […], USA) to the apical compartment of bioengineered tissue constructs (both EO and FT). The constructs were incubated for 1 h at 37 °C at 100 rpm using an orbital shaker. Following incubation, 100 μL of the cleavage product-containing solution was sampled from each construct and the absorbance was quantified at 405 nm using a BioTek™ ELx800 (Winooski, VT, USA) plate reader. Enzyme activity was expressed as a function of tissue area.
# MDR1 = MDR1 (Homo sapiens, UniProt P08183); assay: MDR1-mediated Rhodamine 123 transport in EO constructs (Ussing chamber); conditions: EO constructs supplemented with KGF 0.5–25 ng.mL−1, absence of verapamil
# MDR1, sequence (P08183 whole entry): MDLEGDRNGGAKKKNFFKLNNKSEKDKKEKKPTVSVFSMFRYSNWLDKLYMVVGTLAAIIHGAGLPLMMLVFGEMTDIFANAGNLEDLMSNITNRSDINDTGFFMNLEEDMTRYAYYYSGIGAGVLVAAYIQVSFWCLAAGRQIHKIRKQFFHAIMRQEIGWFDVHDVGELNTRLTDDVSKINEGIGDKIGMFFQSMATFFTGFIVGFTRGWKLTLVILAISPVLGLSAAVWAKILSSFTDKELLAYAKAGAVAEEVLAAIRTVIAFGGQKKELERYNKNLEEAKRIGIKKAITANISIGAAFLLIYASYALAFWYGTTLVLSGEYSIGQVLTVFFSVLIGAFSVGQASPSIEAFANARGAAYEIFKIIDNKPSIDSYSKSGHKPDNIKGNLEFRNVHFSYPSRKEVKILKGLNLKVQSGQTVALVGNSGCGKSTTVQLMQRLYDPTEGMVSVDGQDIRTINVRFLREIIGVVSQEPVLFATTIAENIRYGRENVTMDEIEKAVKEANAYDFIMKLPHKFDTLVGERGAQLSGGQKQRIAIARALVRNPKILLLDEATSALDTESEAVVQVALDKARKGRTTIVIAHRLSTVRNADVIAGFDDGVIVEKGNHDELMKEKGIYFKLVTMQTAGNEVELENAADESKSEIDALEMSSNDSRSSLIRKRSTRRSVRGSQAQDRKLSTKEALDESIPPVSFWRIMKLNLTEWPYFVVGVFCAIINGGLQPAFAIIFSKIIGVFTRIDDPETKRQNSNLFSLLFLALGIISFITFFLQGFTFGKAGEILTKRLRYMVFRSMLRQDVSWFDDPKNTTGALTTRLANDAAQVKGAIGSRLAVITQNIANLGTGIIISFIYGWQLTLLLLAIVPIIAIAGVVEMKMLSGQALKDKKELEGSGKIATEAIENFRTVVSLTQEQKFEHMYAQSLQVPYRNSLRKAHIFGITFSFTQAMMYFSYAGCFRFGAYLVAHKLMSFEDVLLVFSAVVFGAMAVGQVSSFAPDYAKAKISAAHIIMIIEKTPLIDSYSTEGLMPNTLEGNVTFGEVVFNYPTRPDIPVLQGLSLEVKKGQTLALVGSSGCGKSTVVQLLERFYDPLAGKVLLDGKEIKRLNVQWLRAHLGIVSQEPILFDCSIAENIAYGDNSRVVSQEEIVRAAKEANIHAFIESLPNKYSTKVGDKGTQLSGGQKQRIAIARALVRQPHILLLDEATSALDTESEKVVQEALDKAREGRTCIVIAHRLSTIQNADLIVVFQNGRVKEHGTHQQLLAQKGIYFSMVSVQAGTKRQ
# [6] = FT constructs on intestinal and dermal fibroblast foundation compared with Caco-2 monolayer EO, 100 μM
molecule,measurement,setting,value
COC(=O)c1ccccc1-c1c2ccc(=N)cc-2oc2cc(N)ccc12 [Rhodamine 123],"apparent permeability (Papp), basal-apical","[1]; EO constructs in dermal fibroblast conditioned medium vs control, 5 μM, 120 min",enhanced
same,"apparent permeability (Papp), apical-basal","[1]; EO constructs in medium conditioned by intestinal and dermal fibroblasts vs control medium, 5 μM, 120 min",increased
same,"apparent permeability (Papp), basal-apical","[2]; FT constructs on intestinal fibroblast foundation compared with dermal fibroblast counterpart, absence of verapamil, 5 μM",significantly increased
same,"apparent permeability (Papp), apical-basal","[2]; FT constructs on intestinal vs dermal fibroblast foundation, regardless of verapamil, 5 μM",no significant difference
Cc1cn([C@H]2C[C@H](N=[N+]=[N-])[C@@H](CO)O2)c(=O)[nH]c1=O [zidovudine],Caco-2 permeability in vitro,Caco-2 monolayers,low
same,absorption in vivo,[3],high
CC(C)C[C@H](CN)CC(=O)O [pregabalin],Caco-2 permeability in vitro,Caco-2 monolayers,low
same,absorption in vivo,[3],high
CN(Cc1cnc2nc(N)nc(N)c2n1)c1ccc(C(=O)N[C@@H](CCC(=O)O)C(=O)O)cc1 [methotrexate],"Papp, basal-apical transport (BCRP-mediated)","[1]; EO constructs in intestinal fibroblast conditioned medium, 10 μM",modestly enhanced
same,"Papp, apical-basal transport (RFC1 and PCFT)","[2]; FT co-culture constructs only, to a greater degree with dermal fibroblasts, 10 μM",increased
same,"Papp, basal-apical transport (BCRP-mediated)","[2]; FT constructs with dermal fibroblast-based stromal foundation, 10 μM",increased to the greatest extent
CC1(C)S[C@@H]2[C@H](NC(=O)[C@H](N)c3ccc(O)cc3)C(=O)N2[C@H]1C(=O)O [amoxicillin],Caco-2 permeability in vitro,Caco-2 monolayers,low
same,absorption in vivo,[3],high
N[C@@H](C(=O)N[C@@H]1C(=O)N2C(C(=O)O)=C(Cl)CC[C@H]12)c1ccccc1 [loracarbef],Caco-2 permeability in vitro,Caco-2 monolayers,low
same,absorption in vivo,[3],high
Lucifer yellow,"permeability (Papp), basal-apical","[1]; EO constructs in intestinal fibroblast-conditioned medium vs control, not significant, 100 μM",slight increase
same,"permeability (Papp), apical-basal",[2]; [6],significantly increased
same,"permeability (Papp), basal-apical",[2]; [6],significantly increased
CC1=C(C(=O)O)N2C(=O)[C@@H](NC(=O)[C@H](N)c3ccc(O)cc3)[C@H]2SC1 [cefadroxil],Caco-2 permeability in vitro,Caco-2 monolayers,low
same,absorption in vivo,[3],high
B1,TEER,[4],decreased
same,occludin gene expression (qPCR),[5],decreased
same,villin gene expression (qPCR),[5],increased
same,immunofluorescent detection of villin,villin,increases
same,aminopeptidase activity,Aminopeptidase,increased
same,effect on basal-apical transport of Rhodamine 123,MDR1,increased
